Earlier results as cited in patent publication US7713569B2, “Hydroxytyrosol-rich composition from olive vegetation water and method of use thereof” (Creagri, Inc., priority 2000, dated 2010).

How the values were obtained:
[1] = test system: peroxynitrite dependent DNA base modification and tyrosine nitration; conditions: Deiana et al., 1999
platelet aggregation = conditions: Petroni et al., 1995
[2] = test system: various human cellular systems; conditions: Manna et al., 2000
[3] = test system: low density lipoprotein (LDL) oxidation; conditions: Visioli and Galli, 1998
5-lipoxygenase = conditions: de la Puerta et al., 1999; Kohyama et al., 1997
12-lipoxygenase = conditions: de la Puerta et al., 1999; Kohyama et al., 1997
[4] = humans; Visioli et al., 2000

inhibition of 5-lipoxygenase (5-lipoxygenase): inhibits
inhibition of 12-lipoxygenase (12-lipoxygenase): inhibits
absorption following ingestion [4]: dose-dependently absorbed
SMILES: OCCc1ccc(O)c(O)c1 [hydroxytyrosol, 3,4-dihydroxyphenethyl alcohol]
effect on peroxynitrite dependent DNA base modification and tyrosine nitration [1]: inhibitory effect
platelet aggregation (platelet aggregation): prevents
cytotoxicity induced by reactive oxygen species [2]: counteracts
LDL oxidation [3]: prevents
